{"source": "patent US9408871B2", "about": "“Methods for inhibiting complement activation and uses thereof” (THE UNIVERSITY OF BRITISH COLUMBIA, priority 2013, dated 2016)", "system": "TP complement components (C5b,6, C7, C8, C9)", "assay": "terminal pathway hemolytic assay using purified complement components", "format": "cell-based, human", "settings": "cRBC, purified C5b,6, C7, C8, C9", "description": "For serum-based terminal pathway (TP) hemolytic assays, components were diluted in GVB containing 10 mM EDTA (GVB-E), the latter added to prevent upstream complement activation and generation of endogenous C5b,6. 2% NHS was used as the source of C7, C8, and C9, and hemolysis of chicken erythrocytes (cRBC) (3.3×10^8 cells/mL) was initiated by addition of exogenous purified C5b,6, the concentration of which was determined from pilot studies to yield ˜70-80% lysis at 30 min. No C5b,6 activity was detected in the NHS prior to initiating the reaction. For some experiments, instead of NHS, purified terminal pathway complement components were used in the TP assays. In these assays, in a final volume of 300 uL GVB, lysis was achieved by the sequential addition of the following components: cRBC (3.3×10^8 cells/mL), C5b,6 (20 μM), C7 (15 nM), C8 (10 nM), and C9 (25 nM). The unlysed cell pellet was removed by centrifugation and lysis was measured immediately after the 30-minute reaction. […]\nA standard curve for the terminal pathway assay using purified complement components (FIG. 3) was generated using C7 (15 nM), C8 (10 nM), and C9 (25 nM) in excess, and hemolysis of chicken erythrocytes after 30 min at 37° C. was determined as dependent on the concentration of purified C5b,6. […]"}
{"smiles": "O=P(O)(O)O", "note": "[P1, Orthophosphate]", "values": [{"measurement": "effect on erythrocyte lysis, purified TP components", "result": "had no effect"}]}
